In assay [1] the test system is 2-phenyl-1,4-benzoquinone-induced writhing. Kind of assay: Inhibition of phenylquinone-induced writhing in mice (PQW), analgesic activity. To be noted: Mus musculus, sc, read-out: ANALGESIC ACTIVITY, POW (ED50). It is filed as in vivo, mice (male CD-1 Charles River). How it is done:
Compounds I of the present invention are also useful as analgesic agents due to their ability to alleviate pain in mammals. […] Exptl. Biol. Med., 95, 729 (1957)].
A 0.125% concentration of phenyl-p-benzoquinone in a 5% aqueous solution of ethyl alcohol is administered to mice (10 mL/kg, ip). This produces a characteristic "writhe" which is defined as an inward rotation of one or more feet with twisting and turning of the trunk, drawing in of the abdominal wall, lordosis, and arching of the back. A total of 28 male CD-1 Charles River mice (18-30 g) are employed for a time-response. Animals receive food and water ad libitum during their stay in the animal quarters prior to testing. Compounds are tested at 20 mg/kg, sc and are prepared with distilled water, and if insoluble one drop of Tween-80, a surfactant is added. Compounds are administered in a dosage volume of 10 mL/kg.
Twenty mice (five per group) are administered the test compound at various pretreat time (e.g., 15, 30, 45, and 60 min) prior to phenylquinone injection. Control animals (two per group) receive an equal volume of vehicle. After the administration of phenylquinone, the mice are placed separately into 1-L beakers, and 5 min are allowed to elapse. The mice are then observed for a period of 10 min, and the number of writhers is recorded for each animal. The formula for computing percent inhibition is [formula]
The time period with the maximum percent of inhibition is considered the peak time. A dose-response is reserved for interesting compounds or those which inhibit writhing by 70% or more. A dose-response is run in the same manner as a time-response except 10 animals per group are tested at the peak time of drug activity. Fifty animals, divided among four drug groups and one vehicle control group, are employed. The mice are normally given four doses of drug, each twice the amount of the preceding dose. An ED50 is calculated by a computer linear regression analysis.
Results of this assay for some of the compounds of this invention and eseroline salicylate (reference compound) are shown in Table 3.
In general terms: In writhing tests, fewer writhes than in controls are read as antinociception.

The subject of assay [2] is Scopolamine Induced Memory Deficit. Kind of assay: Dark Avoidance Assay (reversal of scopolamine induced memory deficit). The following applies: mice, s.c. It counts as in vivo. How it is done: In this assay mice are tested for their ability to remember an unpleasant stimulus for a period of 24 hours. A mouse is placed in a chamber that contains a dark compartment; a strong incandescent light drives it to the dark compartment, where an electric shock is administered through metal plates on the floor. The animal is removed from the testing apparatus and tested again, 24 hours later, for the ability to remember the electric shock.
If scopolamine, an anticholinergic that is known to cause memory impairment, is administered before an animal's initial exposure to the test chamber, the animal re-enters the dark compartment shortly after being placed in the test chamber 24 hours later. This effect of scopolamine is blocked by an active test compound, resulting in a greater interval before re-entry into the dark compartment.
The results for an active compound are expressed as the percent of a group of animals in which the effect of scopolamine is blocked, as manifested by an increased interval between being placed in the test chamber and re-entering the dark compartment.

Assay [3] has as its target T1, Brain AChE (Rattus norvegicus, UniProt P37136).
T1 construct: brains rapidly removed, corpora striata dissected free, weighed and homogenized in 19 volumes; from tissue; host or cells: corpus striatum homogenate of male Wistar rats
T1 sequence (P37136 32-614): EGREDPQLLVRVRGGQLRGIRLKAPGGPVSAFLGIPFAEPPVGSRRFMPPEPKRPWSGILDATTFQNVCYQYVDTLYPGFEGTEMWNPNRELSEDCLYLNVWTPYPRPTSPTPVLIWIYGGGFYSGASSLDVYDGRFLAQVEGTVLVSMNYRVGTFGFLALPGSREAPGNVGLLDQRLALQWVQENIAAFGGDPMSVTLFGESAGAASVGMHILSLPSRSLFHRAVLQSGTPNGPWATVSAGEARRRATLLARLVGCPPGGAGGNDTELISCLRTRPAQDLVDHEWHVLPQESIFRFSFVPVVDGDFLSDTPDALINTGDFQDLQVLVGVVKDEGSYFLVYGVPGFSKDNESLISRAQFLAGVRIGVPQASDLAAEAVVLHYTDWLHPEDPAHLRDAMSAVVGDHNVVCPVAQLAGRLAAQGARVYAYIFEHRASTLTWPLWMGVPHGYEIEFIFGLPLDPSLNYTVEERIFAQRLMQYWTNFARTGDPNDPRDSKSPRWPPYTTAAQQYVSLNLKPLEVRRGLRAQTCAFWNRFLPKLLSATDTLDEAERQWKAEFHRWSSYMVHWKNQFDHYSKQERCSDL
As to the kind of experiment: In vitro inhibition of acetylcholinesterase activity in rat striatum (modified Ellman). It counts as biochemical, rat (male Wistar). How it is done:
Cholinesterases are found throughout the body, both in the brain and in serum. However, only brain acetylcholinesterase (AChE) distribution is correlated with central cholinergic innervation.
This is a modification of the method of Ellman et al., Biochem. Pharmacol. 7, 98 (1961).
1. 0.05M Phosphate buffer, pH 7.2
(a) 6.85 g NaH2 PO4 .cndot.H2 O/100 ml distilled H2 O
(c) add (a) to (b) until pH reaches 7.2
(a) 9.9 mg 5,5-dithiobisnitrobenzoic acid (DTNB) (0.25 mM)
(c) q.s. to 100 ml with 0.05M phosphate buffer, pH 7.2 (reagent 1)
3. For most assays, a […] stock solution of the test drug is made up in a suitable solvent and serially diluted such that the final concentration in the preincubation step ranges from 10^-3 to 10^-6 M. Different concentrations may be used depending on the potency of the drug. […]
Following the 10 minute preincubation of the tissue (enzyme) with the inhibitor, the samples are mixed with the substrate chromogen buffer by the ABA-100. Using the indicated instrument settings the ABA-100 automatically reads the color reaction and prints out the results in enzyme units after 15 minutes.
2. The enzyme activity can also be measured with a Gilford 250 spectrophotometer. […]
The uninhibited activity of the enzyme (tissue homogenate) is first determined. […] The reaction rate is determined by the slope of the recorded absorbance change. […]
In general terms: In Ellman's method for cholinesterases, released thiocholine reacts with DTNB.

The structures appear in SMILES notation. Structures can show the parent of a compound that is named as a salt. Where two headings read alike, the source gives them in different places.

For orientation: ED50 means the dose at which the effect has come halfway, by size or by number of responders. In the case of `CNC(=O)N(C)C(=O)Oc1ccc2c(c1)[C@]1(C)CCN(C)[C@@H]1N2C` [Example 1, (3aS-cis)-1,2,3,3a,8,8a-Hexahydro-1,3a,8-trimethylpyrrolo[2,3-b]indol-5-yl methyl[(methylamino)carbonyl] carbamate], in assay [1], the 50% effective dose (ED50) was determined as 8 mg/kg. Further, the “% of Animals with Scopolamine Induced Memory Deficit Reversal” value (“% of Animals” below) in assay [2] (0.16 mg/kg of body weight) was 20%.
One may read the IC50 as the concentration needed to halve the response being measured. A high value points to a need for much substance. Consider `CN(C(=O)Nc1cccc(Cl)c1)C(=O)Oc1ccc2c(c1)[C@]1(C)CCN(C)[C@@H]1N2C` [Example 5, (3aS-cis)-1,2,3,3a,8,8a-Hexahydro-1,3a,8-trimethylpyrrolo[2,3-b]indol-5-yl methyl[[(3-chlorophenyl)amino]carbonyl] carbamate], for which the ED50 in assay [1] was determined as 0.15 mg/kg. This molecule also registered an IC50 in assay [3] of 207 nM.
`CN1CC[C@@]2(C)c3cc(O)ccc3N(C)[C@@H]12` [Eseroline Salicylate, reference compound]: the ED50 in assay [1] (mice, s.c., ED50 by linear regression per method, at peak time) came out at 0.52 mg/kg.
Consider `CCCNC(=O)N(CCC)C(=O)Oc1ccc2c(c1)[C@]1(C)CCN(C)[C@@H]1N2C` [Example 4, (3aS-cis)-1,2,3,3a,8,8a-Hexahydro-1,3a,8-trimethylpyrrolo[2,3-b]indol-5-yl propyl[(propylamino)carbonyl] carbamate oxalate], for which the “% of Animals” value in assay [2] (0.16 mg/kg of body weight) was 40%; in assay [2] (2.50 mg/kg of body weight) it was 36%.
For the molecule `CNC(=O)Oc1ccc2c(c1)[C@]1(C)CCN(C)[C@@H]1N2C` [Physostigmine, reference compound], the “% of Animals” value in assay [2] (0.31 mg/kg of body weight) is listed as 20%.
On to `CNC(=O)N(C)C(=O)Oc1cc(C)c2c(c1)[C@]1(C)CCN(C)[C@@H]1N2C` [Example 2, (3aS-cis)-1,2,3,3a,8,8a-Hexahydro-1,3a,7,8-tetramethylpyrrolo[2,3-b]indol-5-yl methyl[(methylamino)carbonyl] carbamate], for which, in assay [1], the ED50 is 0.81 mg/kg.

For the origin of these results see US5077289A (priority 1989, dated 1991).
